Our source for the inhibition and IC50 values is US8519149B2, “Tricyclic compounds as mPGES-1 inhibitors” (Glenmark Pharmaceuticals S.A., priority 2010, dated 2013).

The structures appear in SMILES notation.

In this assay the target is T1, Recombinant human mPGES-1 (Homo sapiens, UniProt O14684).
T1 sequence (O14684 1-152): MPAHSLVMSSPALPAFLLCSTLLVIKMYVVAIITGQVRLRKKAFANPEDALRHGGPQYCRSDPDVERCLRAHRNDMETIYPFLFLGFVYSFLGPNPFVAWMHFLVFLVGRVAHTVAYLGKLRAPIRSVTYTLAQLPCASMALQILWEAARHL
The assay can be described thus: In-vitro mPGES-1 enzyme inhibition assay (PGE2 formation from PGH2, HTRF detection). It is filed as biochemical. To be noted: for inhibition at 1 µM: 1 μM test compound, read-out: Percentage inhibition at 1 μM; for inhibition at 1 µM / inhibition at 10 µM: recombinant human mPGES-1 microsomal fraction; for inhibition at 10 µM: 10 μM test compound, read-out: Percentage inhibition at 10 μM; for IC50: class symbols, selected examples. The method in brief: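 IC50 values were derived by nonlinear regression of percent inhibition relative to enzyme reactions run without inhibitor. PGE2 formed from PGH2 with GSH was quantified by antibody-based HTRF after stannous chloride quench. Enzyme source was human mPGES-1 microsomes at 40-60 μg/mL protein; DMSO 0.5% (v/v).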
(In general: TR-FRET usually uses a lanthanide donor and a delayed reading to cut background.)

The term inhibition denotes the change of the read-out against control, counted positive when it falls. For orientation: IC50 means the concentration needed to halve the response being measured. For `CC1(C)Cc2c(c(C(=O)NCCF)cc3nc(Nc4c(Cl)cccc4Cl)[nH]c23)O1` [Example-63, 2-[(2,6-Dichlorophenyl)amino]-N-(2-fluoroethyl)-7,7-dimethyl-7,8-dihydro-1H-furo[3,2-e]benzimidazole-5-carboxamide], the inhibition at 1 µM was found to be 88%, the inhibition at 10 µM was 96.6% and the 50% inhibitory concentration (IC50) is 50 to 100 nM.

Regarding `CC1(C)Cc2c(c(-c3nc(-c4ccc(F)c(Cl)c4)no3)cc3nc(Nc4c(Cl)cccc4Cl)[nH]c23)O1` [Example-161, 5-(3-(3-Chloro-4-fluorophenyl)-1,2,4-oxadiazol-5-yl)-N-(2,6-dichlorophenyl)-7,7-dimethyl-7,8-dihydro-1H-benzofuro[4,5-d]imidazol-2-amine], the inhibition at 1 µM worked out at 79.2%, the inhibition at 10 µM was determined as 88% and the half-maximal inhibitory concentration (IC50) is above 100 nM.

Regarding `CCC(C)(C)NC(=O)c1cc2nc(Nc3c(Cl)cccc3Cl)[nH]c2c2c1OC(C)(C)C2` [Example-41, 2-[(2,6-Dichlorophenyl)amino]-7,7-dimethyl-N-(2-methylbutan-2-yl)-7,8-dihydro-1H-furo[3,2-e]benzimidazole-5-carboxamide], the inhibition at 1 µM was 99.2%, the inhibition at 10 µM amounted to 95.7% and the 50% inhibitory concentration (IC50) is below 50 nM.

Consider `O=C(Nc1cc(C(F)(F)F)ccc1F)c1cc2nc(Nc3c(F)cccc3Cl)[nH]c2c2nc(C3CC3)oc12` [Example-185, 7-((2-Chloro-6-fluorophenyl)amino)-2-cyclopropyl-N-(2-fluoro-5-(trifluoromethyl)phenyl)-8H-imidazo[4′,5′:5,6]benzo[1,2-d]oxazole-4-carboxamide], for which the inhibition at 1 µM turned out to be 94.4%, the inhibition at 10 µM stood at 98.5% and the IC50 is below 50 nM.

`CC1(C)Cc2c(c(C(=O)Nc3cc(F)c(F)cc3F)cc3nc(Nc4c(Cl)cncc4Cl)[nH]c23)O1` [Example-199, 2-((3,5-Dichloropyridin-4-yl)amino)-7,7-dimethyl-N-(2,4,5-trifluorophenyl)-7,8-dihydro-1H-benzofuro[4,5-d]imidazole-5-carboxamide]: the inhibition at 1 µM worked out at 99.4%, the inhibition at 10 µM is 100% and the IC50 was below 50 nM.

As for `CC1(C)Cc2c(c(C(=O)Nc3cc(F)c(F)cc3F)cc3nc(Nc4c(F)cccc4Cl)[nH]c23)O1` [Example-193, 2-((2-Chloro-6-fluorophenyl)amino)-7,7-dimethyl-N-(2,4,5-trifluorophenyl)-7,8-dihydro-1H-benzofuro[4,5-d]imidazole-5-carboxamide], the inhibition at 1 µM was found to be 96.4%, the inhibition at 10 µM worked out at 94.7% and the IC50 was below 50 nM.

For the compound `CC1(C)Cc2c(c(C(=O)NC3CCCCC3)cc3nc(Nc4c(Cl)cccc4Cl)[nH]c23)O1` [Example-7, N-Cyclohexyl-2-[(2,6-dichlorophenyl)amino]-7,7-dimethyl-7,8-dihydro-1H-furo[3,2-e]benzimidazole-5-carboxamide], the inhibition at 1 µM was determined as 100%, the inhibition at 10 µM is 96.2% and the 50% inhibitory concentration (IC50) is below 50 nM.

Turning to `Cn1c(Nc2c(Cl)cncc2Cl)nc2cc(C(=O)NCC3CC3)c3c(c21)CC(C)(C)O3` [Example-220, N-(Cyclopropylmethyl)-2-((3,5-dichloropyridin-4-yl)amino)-1,7,7-trimethyl-7,8-dihydro-1H-benzofuro[4,5-d]imidazole-5-carboxamide], the inhibition at 1 µM stood at 81.5% and the inhibition at 10 µM amounted to 99.8%.

For `Cc1cccc(Cl)c1Nc1nc2cc(C(=O)Nc3ccc(C(F)(F)F)c[n+]3[O-])c3c(c2[nH]1)CC(C)(C)O3` [Example-163, 2-(2-((2-Chloro-6-methylphenyl)amino)-7,7-dimethyl-7,8-dihydro-1H-benzofuro[4,5-d]imidazole-5-carboxamido)-5-(trifluoromethyl)pyridine 1-oxide], the inhibition at 1 µM was 62.8% and the inhibition at 10 µM stood at 96.9%.

Consider `Cc1cc2c(o1)c(C(=O)Nc1ccc(Br)cn1)cc1nc(Nc3c(Cl)cccc3Cl)[nH]c12` [Example-71, N-(5-Bromopyridin-2-yl)-2-[(2,6-dichlorophenyl)amino]-7-methyl-1H-furo[3,2-e]benzimidazole-5-carboxamide], for which the inhibition at 1 µM stood at 93.9%, the inhibition at 10 µM worked out at 98.4% and the 50% inhibitory concentration (IC50) is below 50 nM.

As to `COCCn1c(Nc2c(Cl)cccc2Cl)nc2cc(C(=O)Nc3ccc(C(F)(F)F)cc3)c3c(c21)CC(C)(C)O3` [Example-99, 2-[(2,6-Dichlorophenyl)amino]-1-(2-methoxyethyl)-7,7-dimethyl-N-[4-(trifluoromethyl)phenyl]-7,8-dihydro-1H-furo[3,2-e]benzimidazole-5-carboxamide], the inhibition at 1 µM is 95.3%, the inhibition at 10 µM amounted to 99.7% and the IC50 is below 50 nM.

For `Cc1ccc(NC(=O)c2cc3nc(Nc4c(Cl)cncc4Cl)[nH]c3c3c2OC(C)(C)C3)c(Cl)c1` [Example-198, N-(2-Chloro-4-methylphenyl)-2-((3,5-dichloropyridin-4-yl)amino)-7,7-dimethyl-7,8-dihydro-1H-benzofuro[4,5-d]imidazole-5-carboxamide], the inhibition at 1 µM was 98.7%, the inhibition at 10 µM came out at 99.7% and the IC50 was below 50 nM.

Turning to `CC1(C)CCCC(NC(=O)c2cc3nc(Nc4c(Cl)cncc4Cl)[nH]c3c3c2OC(C)(C)C3)C1` (stereo not drawn) [Example-14, 2-[(3,5-Dichloropyridin-4-yl)amino]-N-(3,3-dimethylcyclohexyl)-7,7-dimethyl-7,8-dihydro-1H-furo[3,2-e]benzimidazole-5-carboxamide], the inhibition at 1 µM worked out at 100%, the inhibition at 10 µM came to 100% and the IC50 was below 50 nM.

As for `CC1(C)Cc2c(c(C(=O)Nc3cc(C4CC4)ccc3F)cc3nc(Nc4c(Cl)cccc4Cl)[nH]c23)O1` [Example-159, N-(5-Cyclopropyl-2-fluorophenyl)-2-((2,6-dichlorophenyl)amino)-7,7-dimethyl-7,8-dihydro-1H-benzofuro[4,5-d]imidazole-5-carboxamide], the inhibition at 1 µM turned out to be 98.9%, the inhibition at 10 µM worked out at 100% and the IC50 was below 50 nM.

For the compound `Cc1ccc(Nc2nc3cc(C(=O)NCc4ccc(C(F)(F)F)cc4)c4c(c3[nH]2)CC(C)(C)O4)c(Cl)c1` [Example-92, 2-[(2-Chloro-4-methylphenyl)amino]-7,7-dimethyl-N-[4-(trifluoromethyl)benzyl]-7,8-dihydro-1H-furo[3,2-e]benzimidazole-5-carboxamide], the inhibition at 1 µM was found to be 75.4% and the inhibition at 10 µM was determined as 76%.

As to `Cc1cccc(Cl)c1Nc1nc2cc(C(=O)Nc3ncc(Cl)cc3F)c3c(c2[nH]1)CC(C)(C)O3` [Example-204, N-(5-Chloro-3-fluoropyridin-2-yl)-2-((2-chloro-6-methylphenyl)amino)-7,7-dimethyl-7,8-dihydro-1H-benzofuro[4,5-d]imidazole-5-carboxamide], the inhibition at 1 µM amounted to 98%, the inhibition at 10 µM is 100% and the IC50 was below 50 nM.
